The values below are quoted from earlier work in patent US8604084B2, “Method” (GlaxoSmithKline, LLC, priority 2008, dated 2013).

As for `CC(=O)Nc1ccc(O)cc1` [Paracetamol], for the setting “adults”, the mean plasma half-life is 2.4 h and the “plasma half-life, range” value is 1.5 to 3.0 h. In addition, the plasma protein binding entry (in vivo) is given as “not bound to plasma protein to any extent”. Moreover, the absolute oral bioavailability result (independent of dose in the range of 5-20 mg/kg) is “about 80%”. Moreover, the volume of distribution entry (per body weight) is listed as “about 0.9 litre/kilogram”.
